According to publication PMC8787486 (mBio, 2022):

Key:
[1] = target: T1, LdtMab2 (Mycobacteroides abscessus, UniProt B1MMQ4); test: timed ESI-MS of intact protein, +[…] Da carbamoyl-enzyme adduct after […] h; format: binding
T1 construct: gene MAB_1530
T1 sequence (B1MMQ4 42-406): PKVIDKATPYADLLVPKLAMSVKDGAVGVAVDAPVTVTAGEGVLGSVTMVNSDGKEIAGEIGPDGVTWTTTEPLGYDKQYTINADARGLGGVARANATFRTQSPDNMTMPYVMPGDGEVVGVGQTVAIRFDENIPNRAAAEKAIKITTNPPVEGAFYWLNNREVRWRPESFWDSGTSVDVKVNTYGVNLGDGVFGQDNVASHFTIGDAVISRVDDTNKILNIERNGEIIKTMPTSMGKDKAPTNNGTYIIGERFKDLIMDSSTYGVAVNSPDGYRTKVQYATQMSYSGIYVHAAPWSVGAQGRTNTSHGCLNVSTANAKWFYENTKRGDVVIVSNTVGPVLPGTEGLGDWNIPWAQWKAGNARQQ

[2] = target: T2, BlaMab (Mycobacteroides abscessus, UniProt B1MCI3); test: nitrocefin competition kinetics with purified enzyme; ESI-MS carbamoyl-enzyme adduct (+[…] Da); Kd = koff/(k2/K); format: biochemical
T2 construct: gene MAB_2875

[3] = target: T3, LdtMab4 (Mycobacteroides abscessus, UniProt B1MKW1); test: timed ESI-MS of intact protein, +[…] Da carbamoyl-enzyme adduct after […] h; format: binding
T3 construct: gene MAB_4537c
T3 sequence (B1MKW1 42-333): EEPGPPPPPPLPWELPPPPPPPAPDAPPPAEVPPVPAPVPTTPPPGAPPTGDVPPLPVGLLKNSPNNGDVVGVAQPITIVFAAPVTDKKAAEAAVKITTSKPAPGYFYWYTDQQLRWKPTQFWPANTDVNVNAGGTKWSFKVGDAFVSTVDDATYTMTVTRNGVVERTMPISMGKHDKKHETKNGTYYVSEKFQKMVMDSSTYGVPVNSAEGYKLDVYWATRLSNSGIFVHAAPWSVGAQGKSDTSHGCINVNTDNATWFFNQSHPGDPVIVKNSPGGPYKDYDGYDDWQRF

[4] = test system: O=C(Cc1cccs1)N[C@@H]1C(=O)N2C(C(=O)O)=C(/C=C/c3ccc([N+](=O)[O-])cc3[N+](=O)[O-])CS[C@H]12; test: purified protein; format: biochemical, Mycobacteroides abscessus

Row | Compound | timed ESI-MS of intact protein, +278 Da carbamoyl-enzyme adduct after 2 h [1] | Kd [2] [pM] | timed ESI-MS of intact protein, +276 Da carbamoyl-enzyme adduct after 2 h [3] | Km [4] [µM]
1 | CC1=C[C@@H]2CN(C(=O)N2OS(=O)(=O)O)[C@@H]1C(N)=O [DUR, durlobactam] | DUR formed carbamoyl-enzyme complexes with D,D-c (Fig. 3B), LdtMab2, and LdtMab4 (Fig. 3C and E). | 200 ± 100 | DUR formed carbamoyl-enzyme complexes with D,D-c (Fig. 3B), LdtMab2, and LdtMab4 (Fig. 3C and E). | 
2 | BlaMab (Mycobacteroides abscessus ATCC 19977) |  |  |  | 22
